# Values of other authors, collected in CN114794330A, “一种调节水生动物活力状态的功能性调理剂及其制备方法” (Nori Shanghai Bioengineering Co ltd, priority 2022, dated 2022).
smiles,measurement,setting,value
"NCCS(=O)(=O)O [牛磺酸, 2-氨基乙磺酸]",solubility in 95% ethanol,"95% ethanol, 17℃",0.004%
same,solubility in acetone,acetone,不溶
same,solubility in anhydrous ethanol,anhydrous ethanol,不溶
same,solubility in diethyl ether,diethyl ether,不溶
same,solubility in water,"water, 12℃",0.5%
